In patent US11390868B2, “Treatment of filaggrin (FLG) related diseases by modulation of FLG expression and activity” (CuRNA, Inc., priority 2009, dated 2022):
Counter-ions that a name gives are not always drawn. Like-named read-outs stand apart in the source and are kept apart here.

Experiments:
[1] = system: TNF-alpha; settings: several case studies and a pilot study; cited from earlier work
[2] = cited from earlier work; for solubility in ethanol / alcohol: anhydrous ethanol or alcohol
[3] = system: FLG Natural Antisense Transcripts in primary keratinocytes; experiment: Real time PCR of FLG Natural Antisense Transcripts after treatment of primary keratinocytes with small compounds; assay type: cell-based; settings: small compounds 1 uM, dosed twice, 24 h after second dosing, vs vehicle control (FIG. 5)
Method: Primary keratinocytes (from Promocell) were grown in a growth media (Keratinocyte Growth Media, Promocell cat #C-2011) at 37° C. with 5% CO2. One day before the experiment the cells were replated at approximately 5×10^4/ml (or about ⅓ dilution from 90% confluency) into 24-well collagen-coated plates (Beckton Dickinson BioCoat plates cat #35 6408) and incubated at 37° C. and 5% CO2 overnight. On the day of the experiment the media in the 24-well plates was changed to 1 ml fresh growth media. Small compounds were diluted in DMSO to the concentration of 1000 uM. On the day of the experiment this solution was diluted 1:100 in fresh growth media. Pure DMSO was diluted in media at the same ratio […] to treat vehicle control samples. To dose one well, […] of the compound or pure DMSO solution was added directly to well of a 24-well plate. The final concentration of compounds was 1 uM. Dosing volume was adjusted if a different concentration of compound was desired. After dosing the plates were incubated overnight at 37° C., 5% CO2. 24 h after addition of small compounds the media was replaced with fresh growth media and the dosing was repeated as described above. 24 h after second dosing RNA was extracted from the cells using SV Total RNA Isolation System from Promega (cat #Z3105) following the manufacturers' instructions. 600 ng of total RNA was added to the reverse transcription reaction performed using High Capacity cDNA kit from Applied Biosystems (cat #4368813) as described in the manufacturer's protocol. The cDNA from this reverse transcription reaction was used to monitor gene expression by real time PCR using BI Taqman Gene Expression Mix (cat #4369510) and primers/probes designed by AB (for example, assay ID #Hs00856927_gl for FLG). The following PCR cycle was used: 50° C. for 2 min, 95° C. for 10 min, 40 cycles of (95° C. for 15 seconds, 60° C. for […]) using StepOne thermal cycler (ABI). […] Fold change in gene expression after treatment with small compounds was calculated based on the difference in 18S-normalized dCt values between treated and mock-transfected samples.

[4] = cited from earlier work
[5] = cited from earlier work; remark: listed apart in the source
[6] = system: patients with severe head trauma; settings: peripheral vein injection plus standard procedures; cited from earlier work

SMILES: CC(NC(C)(C)C)C(=O)c1cccc(Cl)c1.Cl (racemic) [Bupropion, (±)-1-(3-chlorophenyl)-2-[(1,1-dimethylethyl)amino]-1-propanone hydrochloride]
- level of inflammatory mediator TNF-alpha [1]: lowers
- solubility in water [2]: highly soluble
- levels of FLG Natural Antisense Transcripts [3]: significantly decreased

SMILES: CCc1ccc(CCOc2ccc(CC3SC(=O)NC3=O)cc2)nc1 (racemic) [Pioglitazone hydrochloride, [(±)-5-[[4-[2-(5-ethyl-2-pyridinyl)ethoxy]phenyl]methyl]-2,4-]thiazolidinedione monohydrochloride]
- solubility in N,N-dimethylformamide ([2]; N,N-dimethylformamide): soluble
- solubility in acetone [2]: very slightly soluble
- solubility in acetonitrile ([2]; acetonitrile): very slightly soluble
- solubility in ethanol / alcohol [2]: slightly soluble
- solubility in ether ([2]; ether): insoluble
- solubility in water [2]: practically insoluble

SMILES: COC(=O)C1=C(C)NC(C)=C(C(=O)O[C@@H]2CCCN(Cc3ccccc3)C2)[C@@H]1c1cccc([N+](=O)[O-])c1.Cl (relative stereo) [Bendipine, (4R)-rel-1,4-Dihydro-2,6-dimethyl-4-(3-nitrophenyl)-3,5-pyridinedicarboxylic acid 3-methyl 5-[(3R)-1-(phenylmethyl)-3-piperidinyl]ester hydrochloride]
- levels of FLG Natural Antisense Transcripts [3]: significantly decreased

SMILES: COC(=O)C1=C(C)NC(C)=C(C(=O)OC(C)C)C1c1cccc2nonc12 (stereo not drawn) [Isradipine, 3,5-Pyridinedicarboxylic acid, 4-(4-benzofurazanyl)-1,4-dihydro-2,6-dimethyl-, methyl 1-methylethyl ester]
- solubility in acetone [2]: freely soluble
- solubility in chloroform [2]: freely soluble
- solubility in ethanol / alcohol [2]: soluble
- solubility in methylene chloride ([2]; methylene chloride): freely soluble
- solubility in water ([2]; 37° C.): < 10 µg/mL
- solubility in water [2]: practically insoluble

SMILES: O=C([O-])CCc1nc(-c2ccccc2)c(-c2ccccc2)o1.[K+] [Oxaprozin potassium, 4,5-diphenyl-2-oxazolepropionic acid, potassium salt]
- solubility in ethanol / alcohol [2]: slightly soluble
- solubility in water [2]: very soluble
- PK in water ([4]; in water): 9.7

SMILES: CN1C(C(=O)Nc2ccccn2)=C(O)c2ccccc2S1(=O)=O [Piroxicam, 4-hydroxyl-2-methyl-N-2-pyridinyl-2H-1,2,-benzothiazine-3-carboxamide 1,1-dioxide]
- solubility in aqueous solutions ([2]; aqueous solutions): slightly soluble
- solubility in dilute acid ([2]; dilute acid): sparingly soluble
- solubility in ethanol / alcohol [2]: slightly soluble
- solubility in most organic solvents ([2]; most organic solvents): sparingly soluble
- solubility in water [2]: sparingly soluble
- pKa of weak basic pyridyl nitrogen ([4]; pyridyl nitrogen): 1.8

SMILES: CC1(C)O[C@@H]2[C@@H](CO[C@@]3(COS(N)(=O)=O)OC(C)(C)O[C@@H]23)O1 [Topiramate, 2,3:4,5-Di-O-isopropylidene-β-D-fructopyranose sulfamate]
- solubility in acetone [2]: freely soluble
- solubility in alkaline solutions ([2]; alkaline solutions containing sodium hydroxide or sodium phosphate, pH of 9 to 10): most soluble
- solubility in chloroform [2]: freely soluble
- solubility in dimethyl sulfoxide ([2]; dimethyl sulfoxide): freely soluble
- solubility in ethanol / alcohol [2]: freely soluble
- pH of saturated solution [5]: 6.3
- levels of FLG Natural Antisense Transcripts [3]: significantly decreased

SMILES: COCCOC(=O)C1=C(C)NC(C)=C(C(=O)OC(C)C)C1c1cccc([N+](=O)[O-])c1 (stereo not drawn) [nimodipine, isopropyl 2-methoxyethyl 1,4-dihydro-2,6-dimethyl-4-(m-nitrophenyl)-3,5-pyridinedicarboxylate]
- Glasgow outcome score values [6]: higher
- cerebral metabolism [6]: improved
- cerebral perfusion pressure [6]: significantly higher
- intracranial pressure [6]: lower
- jugular glucose [6]: lower
- jugular lactate [6]: lower
- jugular venous oxygen saturation [6]: significantly higher
